In patent publication US20150141580A1, “OPTIMIZED DRUG CONJUGATES” (SynDevRx, Inc., priority 2010, published 2015):

Experiment: Pharmacokinetics of polymer conjugate, plasma SDX-7539 by LC-MS/MS
Type: in vivo, Sprague-Dawley rats
Conditions: after SDX-7539 30 mg/kg or SDX-7320 200 mg/kg IV, rat
Method: FIG. 6 is a graph showing the plasma concentration of the active metabolite, SDX-7539, as a function of time in Sprague-Dawley rats, to which either the polymer conjugate SDX-7320 (single bolus, intravenous injection, 200 mg/kg) or the small molecule SDX-7539 (single bolus, intravenous injection, 30 mg/kg) has been administered.
The polymer conjugate, SDX-7320, or the in vivo release product, SDX-7539 were administered to Sprague-Dawley rats (N=3). Blood was collected over 48 hours after dosing to determine the plasma concentration of SDX-7539 by LC-MS/MS. The LLOQ for SDX-7539 was 2.5 nM. The terminal elimination half-life for SDX-7539 was estimated by fitting a linear regression to the In[SDX-7539] versus time data. […] Cmax for the polymer is about 2% of the value for the small molecule.

AUC for SDX-7539: comparable
SMILES: CO[C@@H]1[C@H](OC(=O)NC2CCC(N)CC2)CC[C@]2(CO2)[C@H]1[C@@]1(C)O[C@@H]1CC=C(C)C (stereo partly shown) [SDX-7539]
